Reference: the RepoRT retention time repository (doi:10.1021/es4044374)

Assay: RP, Waters XBridge C18, 50 × 2.1 mm, 3.5 µm, 30 °C, 0.2 mL/min, estimated dead time 0.55 min; A: water + 0.1% formic acid, pH 3; B: methanol + 0.1% formic acid, pH 3; gradient (min/%B) 0/10 4/50 17/95 25/95 25.1/10 30/10
Settings: stereoisomer not certain

Row | SMILES | LC retention time
1 | CCOP(=S)(OCC)Oc1nc(Cl)c(Cl)cc1Cl [Chlorpyrifos] | 16 min
2 | Cc1ccc(NC(=O)N(C)C)cc1Cl [Chlortoluron] | 8.2 min
3 | CC1(C)CC1C(=O)NC(=CCCCCSCC(N)C(=O)O)C(=O)O (configuration not stated) [Cilastatin] | 5.2 min
4 | O=C(O)c1cn(C2CC2)c2cc(N3CCNCC3)c(F)cc2c1=O [Ciprofloxacin] | 4.5 min
5 | CN(C)CCCC1(c2ccc(F)cc2)OCc2cc(C#N)ccc21 (configuration not stated) [Citalopram] | 6.6 min
6 | CCC1OC(=O)C(C)C(OC2CC(C)(OC)C(O)C(C)O2)C(C)C(OC2OC(C)CC(N(C)C)C2O)C(C)(OC)CC(C)C(=O)C(C)C(O)C1(C)O (configuration not stated) [Clarithromycin] | 9.7 min
7 | CC(C)(C)C(=O)C(Oc1ccc(Cl)cc1)n1ccnc1 (configuration not stated) [Climbazol] | 8.1 min
8 | CCCC1CC(C(=O)NC(C(C)Cl)C2OC(SC)C(O)C(O)C2O)N(C)C1 (configuration not stated) [Clindamycin] | 6.7 min
9 | CC(C)(Oc1ccc(Cl)cc1)C(=O)O [Clofibric acid] | 10 min
10 | CC1(C)CON(Cc2ccccc2Cl)C1=O [Clomazone] | 9.4 min
11 | O=C(O)C(c1ccccc1Cl)N1CCc2sccc2C1 (configuration not stated) [Clopidogrel carboxylic acid] | 5.7 min
12 | CNC(=N[N+](=O)[O-])NCc1cnc(Cl)s1 [Clothianidin] | 4.9 min
13 | Clc1ccccc1C(c1ccccc1)(c1ccccc1)n1ccnc1 [Clotrimazole] | 8.8 min
14 | CN1CCN(C2=Nc3cc(Cl)ccc3Nc3ccccc32)CC1 [Clozapine] | 6.4 min
15 | COC(=O)C1C(OC(=O)c2ccccc2)CC2CCC1N2C (configuration not stated) [Cocaine] | 5 min
16 | COc1ccc2c3c1OC1C(O)C=CC4C(C2)N(C)CCC341 (configuration not stated) [Codeine] | 2.8 min
17 | CCNc1nc(Cl)nc(NC(C)(C)C#N)n1 [Cyanazine] | 6.6 min
18 | O=S(=O)(O)NC1CCCCC1 [Cyclamate] | 3.6 min
19 | O=P1(N(CCCl)CCCl)NCCCO1 (configuration not stated) [Cyclophosphamide] | 6.3 min

Row | SMILES | LC retention time
20 | CCNC(=O)NC(=O)C(C#N)=NOC [Cymoxanil] | 5.6 min
21 | CC(C1CC1)C(O)(Cn1cncn1)c1ccc(Cl)cc1 (configuration not stated) [Cyproconazole] | 11.5 min
22 | Cc1cc(C2CC2)nc(Nc2ccccc2)n1 [Cyprodinil] | 9.4 min
23 | CNCCCC(C#N)(c1ccc(OC)c(OC)c1)C(C)C (configuration not stated) [D617] | 6.3 min
24 | CCCCCCCCCC[N+](C)(C)[O-] [DDAO] | 10.4 min
25 | CCN(CC)C(=O)c1cccc(C)c1 [DEET] | 8.6 min
26 | CCOC(=O)Nc1cccc(OC(=O)Nc2ccccc2)c1 [Desmedipham] | 9.2 min
27 | CC1CC2C3CCC4=CC(=O)C=CC4(C)C3(F)C(O)CC2(C)C1(O)C(=O)CO (configuration not stated) [Dexamethasone] | 9.5 min
28 | COc1ccc2c(c1)C13CCCCC1C(C2)N(C)CC3 (configuration not stated) [Dextromethorphan] | 6.6 min
29 | CC(=O)Nc1c(I)c(NC(C)=O)c(I)c(C(=O)O)c1I [Diatrizoate] | 1.6 min
30 | CN1C(=O)CN=C(c2ccccc2)c2cc(Cl)ccc21 [Diazepam] | 10.1 min
31 | CCOP(=S)(OCC)Oc1cc(C)nc(C(C)C)n1 [Diazinon] | 13 min
32 | CCOP(=O)(OCC)Oc1cc(C)nc(C(C)C)n1 [Diazoxon] | 9.5 min
33 | COc1c(Cl)ccc(Cl)c1C(=O)O [Dicamba] | 7 min
34 | N#Cc1c(Cl)cccc1Cl [Dichlobenil] | 8.5 min
35 | CC(Oc1ccc(Cl)cc1Cl)C(=O)O (configuration not stated) [Dichlorprop] | 10.7 min
36 | O=C(O)Cc1ccccc1Nc1c(Cl)cccc1Cl [Diclofenac] | 12.8 min
37 | CC1COC(Cn2cncn2)(c2ccc(Oc3ccc(Cl)cc3)cc2Cl)O1 (configuration not stated) [Difenoconazole] | 14.1 min
